Reference: patent US8633200B2, “Inhibitors of human immunodeficiency virus replication” (priority 2010, dated 2014)
Where a name gives a salt, the structure may show the parent alone. Read-outs that look alike come from different tables or passages of the source.

System: recombinant NL-Rluc virus (NL4-3 with Renilla Luciferase gene) in MT-2 cells
Test: Inhibition of HIV replication (NL-Rluc luciferase reporter virus, MT-2 cells)
Assay type: cell-based, human immunodeficiency virus (HIV)
Settings: NL43, 120 h

## Cc1cccc(-c2cccc(-c3cc4nc(C)c([C@H](OC(C)(C)C)C(=O)O)c(-c5cc(F)c6c(c5C)CCCO6)n4n3)c2)c1 [Example 130, (2S)-2-(tert-Butoxy)-2-(7-(8-fluoro-5-methylchroman-6-yl)-2-(3′-methyl-[1,1′-biphenyl]-3-yl)-5-methylpyrazolo[1,5-a]pyrimidin-6-yl)acetic acid, TFA salt]
read-out: Activity
  EC50: < 0.1 µM

## CC(=O)Nc1ccc(-c2c(C(OC(C)(C)C)C(=O)O)c(C)nc3cc(-c4ccccc4)nn23)cc1 (stereo not shown) [Example 11]
read-out: Activity
  EC50: > 1 µM

## COc1cc(-c2cccc(-c3cc4nc(C)c([C@H](OC(C)(C)C)C(=O)O)c(-c5cc(F)c6c(c5C)CCCO6)n4n3)c2)ccn1 [Example 168, (2S)-2-(tert-Butoxy)-2-(7-(8-fluoro-5-methylchroman-6-yl)-2-(3-(2-methoxypyridin-4-yl)phenyl)-5-methylpyrazolo[1,5-a]pyrimidin-6-yl)acetic acid]
read-out: Activity
  EC50: < 0.1 µM

## COc1ccc(-c2c(C(OC(C)(C)C)C(=O)O)c(C)nc3cc(-c4ccccc4)nn23)cc1C (stereo not shown) [Example 88]
read-out: Activity
  EC50: > 1 µM

## Cc1ccc(-c2c(C(OC(C)(C)C)C(=O)O)c(C)nc3cc(-c4ccccc4)nn23)cc1F (stereo not shown) [Example 61]
read-out: Activity
  EC50: > 1 µM

## Cc1nc2cc(-c3ccccc3)nn2c(-c2csc3ccccc23)c1C(OC(C)(C)C)C(=O)O (stereo not shown) [Example 68]
read-out: Activity
  EC50: > 1 µM

## Cc1ccc(-c2c(C(OC(C)(C)C)C(=O)O)c(C)nc3ccnn23)cc1 (stereo not shown) [Example 42, 2-tert-Butoxy-2-(5-methyl-7-p-tolylpyrazolo[1,5-a]pyrimidin-6-yl)acetic acid, TFA salt]
read-out: Activity
  EC50: > 1 µM
read-out: EC50 μM
  EC50: 4.5 µM

## Cc1nc2c(-c3cccc(Cl)c3)c(-c3ccccc3)nn2c(-c2cc(F)c3c(c2C)CCCO3)c1[C@H](OC(C)(C)C)C(=O)O [Example 140, (2S)-2-(tert-Butoxy)-2-(3-(3-chlorophenyl)-7-(8-fluoro-5-methylchroman-6-yl)-5-methyl-2-phenylpyrazolo[1,5-a]pyrimidin-6-yl)acetic acid]
read-out: Activity
  EC50: 0.1 to 1 µM
read-out: EC50 μM
  EC50: 1 µM

## Cc1nc2cc(-c3ccnc(OCc4ccccc4)c3)nn2c(-c2cc(F)c3c(c2C)CCCO3)c1C(OC(C)(C)C)C(=O)O (stereo not shown) [Example 107, 2-(2-(2-(Benzyloxy)pyridin-4-yl)-7-(8-fluoro-5-methylchroman-6-yl)-5-methylpyrazolo[1,5-a]pyrimidin-6-yl)-2-tert-butoxyacetic acid, TFA salt]
read-out: Activity
  EC50: < 0.1 µM
read-out: EC50 μM
  EC50: 0.008 µM

## Cc1nc2cc(-c3cccc(OCc4ccccc4Cl)c3)nn2c(-c2cc(F)c3c(c2C)CCCO3)c1C(OC(C)(C)C)C(=O)O (stereo not shown) [Example 102, 2-tert-Butoxy-2-(2-(3-(2-chlorobenzyloxy)phenyl)-7-(8-fluoro-5-methylchroman-6-yl)-5-methylpyrazolo[1,5-a]pyrimidin-6-yl)acetic acid, TFA salt]
read-out: Activity
  EC50: < 0.1 µM

## Cc1nc2cc(-c3ccccc3)nn2c(-c2ccc3occc3c2)c1C(OC(C)(C)C)C(=O)O (stereo not shown) [Example 28]
read-out: Activity
  EC50: > 1 µM

## Cc1nc2cc(-c3cccc(Cl)c3)nn2c(-c2ccc(F)cc2)c1[C@H](OC(C)(C)C)C(=O)O [Example 147, (S)-2-(tert-Butoxy)-2-(2-(3-chlorophenyl)-7-(4-fluorophenyl)-5-methylpyrazolo[1,5-a]pyrimidin-6-yl)acetic acid]
read-out: Activity
  EC50: > 1 µM

## COc1ccc(-c2c(C(OC(C)(C)C)C(=O)O)c(C)nc3cc(-c4ccccc4)nn23)cc1F (stereo not shown) [Example 33]
read-out: Activity
  EC50: > 1 µM

## Cc1nc2cc(-c3cccc(-c4ccccc4C(F)(F)F)c3)nn2c(-c2cc(F)c3c(c2C)CCCO3)c1[C@H](OC(C)(C)C)C(=O)O [Example 173, (2S)-2-(tert-Butoxy)-2-(7-(8-fluoro-5-methylchroman-6-yl)-5-methyl-2-(2′-(trifluoromethyl)-[1,1′-biphenyl]-3-yl)pyrazolo[1,5-a]pyrimidin-6-yl)acetic acid]
read-out: Activity
  EC50: < 0.1 µM

## Cc1nc2cc(-c3ccc4c(c3)CCCC4)nn2c(-c2ccc(Cl)cc2)c1[C@H](OC(C)(C)C)C(=O)O [Example 155, (S)-2-(tert-Butoxy)-2-(7-(4-chlorophenyl)-5-methyl-2-(5,6,7,8-tetrahydronaphthalen-2-yl)pyrazolo[1,5-a]pyrimidin-6-yl)acetic acid]
read-out: Activity
  EC50: 0.1 to 1 µM

## Cc1nc2cc(-c3ccccc3)nn2c(-c2ccc3c(c2)CCC3)c1C(OC(C)(C)C)C(=O)O (stereo not shown) [Example 2]
read-out: Activity
  EC50: > 1 µM

## CSc1ccc(-c2c(C(OC(C)(C)C)C(=O)O)c(C)nc3cc(-c4ccccc4)nn23)cc1 (stereo not shown) [Example 58]
read-out: Activity
  EC50: > 1 µM
read-out: EC50 μM
  EC50: 3.1 µM

## Cc1nc2cc(-c3cccc(-c4ccc5c(cnn5C)c4)c3)nn2c(-c2cc(F)c3c(c2C)CCCO3)c1[C@H](OC(C)(C)C)C(=O)O [Example 120, (2S)-2-(tert-Butoxy)-2-(7-(8-fluoro-5-methylchroman-6-yl)-5-methyl-2-(3-(1-methyl-1H-indazol-5-yl)phenyl)pyrazolo[1,5-a]pyrimidin-6-yl)acetic acid]
read-out: Activity
  EC50: < 0.1 µM
read-out: EC50 μM
  EC50: 0.002 µM

## Cc1ccc(-c2c(C(OC(C)(C)C)C(=O)O)c(C)nc3cc(-c4ccccc4)nn23)cc1 (stereo not shown) [Example 41, 2-tert-Butoxy-2-(5-methyl-2-phenyl-7-p-tolylpyrazolo[1,5-a]pyrimidin-6-yl)acetic acid, TFA salt]
read-out: Activity
  EC50: 0.1 to 1 µM
read-out: EC50 μM
  EC50: 0.6 µM

## Cc1nc2cc(-c3ccccc3)nn2c(-c2ccc(OC(F)(F)F)cc2)c1C(OC(C)(C)C)C(=O)O (stereo not shown) [Example 25]
read-out: Activity
  EC50: > 1 µM

## Cc1ccc(-c2cc3nc(C)c(C(OC(C)(C)C)C(=O)O)c(-c4cc(F)c5c(c4C)CCCO5)n3n2)cc1OCc1ccccc1 (stereo not shown) [Example 105, 2-(2-(3-(Benzyloxy)-4-methylphenyl)-7-(8-fluoro-5-methylchroman-6-yl)-5-methylpyrazolo[1,5-a]pyrimidin-6-yl)-2-tert-butoxyacetic acid]
read-out: Activity
  EC50: < 0.1 µM

## Cc1nc2c(Cl)c(C)nn2c(-c2cc(F)c3c(c2C)CCCO3)c1C(OC(C)(C)C)C(=O)O (stereo not shown) [Example 143, 2-(tert-Butoxy)-2-(3-chloro-7-(8-fluoro-5-methylchroman-6-yl)-2,5-dimethylpyrazolo[1,5-a]pyrimidin-6-yl)acetic acid]
read-out: Activity
  EC50: 0.1 to 1 µM

## Cc1nc2c(C)c(-c3cccc(-c4ccccc4F)c3)nn2c(-c2cc(F)c3c(c2C)CCCO3)c1[C@H](OC(C)(C)C)C(=O)O [Example 162, (2S)-2-(tert-Butoxy)-2-(7-(8-fluoro-5-methylchroman-6-yl)-2-(2′-fluoro-[1,1′-biphenyl]-3-yl)-3,5-dimethylpyrazolo[1,5-a]pyrimidin-6-yl)acetic acid]
read-out: Activity
  EC50: < 0.1 µM

## Cc1cc(F)ccc1-c1c(C(OC(C)(C)C)C(=O)O)c(C)nc2cc(-c3ccccc3)nn12 (stereo not shown) [Example 60]
read-out: Activity
  EC50: > 1 µM

## Cc1nc2cc(-c3ccccc3)nn2c(-c2ccc(F)c(Cl)c2)c1C(OC(C)(C)C)C(=O)O (stereo not shown) [Example 82]
read-out: Activity
  EC50: > 1 µM

## Cc1nc2cc(-c3ccccc3)nn2c(-c2ccc3c(c2)CCO3)c1C(OC(C)(C)C)C(=O)O (stereo not shown) [Example 26]
read-out: Activity
  EC50: 0.1 to 1 µM

## Cc1nc2c(-c3cccc(OCc4ccc(F)cc4)c3)c(-c3ccccc3)nn2c(-c2cc(F)c3c(c2C)CCCO3)c1[C@H](OC(C)(C)C)C(=O)O [Example 141, (2S)-2-(tert-Butoxy)-2-(7-(8-fluoro-5-methylchroman-6-yl)-3-(3-((4-fluorobenzyl)oxy)phenyl)-5-methyl-2-phenylpyrazolo[1,5-a]pyrimidin-6-yl)acetic acid]
read-out: Activity
  EC50: > 1 µM
read-out: EC50 μM
  EC50: 3.3 µM
